Values quoted from earlier work, collected in patent publication US8283154B2, “Method of decontaminating polluted environments with bacteria on a porous support” (National Institute for Agro-Environmental Sciences …, priority 2005, dated 2012).

Clc1c(Cl)c(Cl)c(Cl)c(Cl)c1Cl [HCB, hexachlorobenzene]
aqueous solubility: 0.005 ppm
